Patent US12076401B2, “Benzamide and active compound compositions and methods of use” (TRANSLATIONAL DRUG DEVELOPMENT, LLC, priority 2015, dated 2024)
Where “and” joins values, the source holds several entries; their conditions need not be identical. Equal values may be shown once. Read-outs that look alike come from different tables or passages of the source. One block for each compound: values may come before it.

Assays:
[1] = cited from earlier work
MC-38 = MC-38 murine colon tumor volume growth; format: in vivo; conditions: 150.00 mg/kg PO QD to end, in mm³
Method: • Group 1 Isotype Control 5.00 mg/kg+Compound ID #24 Vehicle • Group 3 Compound ID #24 150.00 mg/kg • Group 4 anti-mGITR 5.00 mg/kg • Group 6 anti-mGITR 5.00 mg/kg+Compound ID #24 150.00 mg/kg

U266 = assay: CellTiter-Glo cell viability, U266 (Myeloma); format: cell-based
Method: Compound ID #24 (a compound of formula (I)) and Compound ID #26 (a compound of formula (II)) were tested for the inhibition of cancer cell proliferation. Cell viability in the presence of varying concentrations of Compound ID #24 and Compound ID #26 at different time points was used to assess cytotoxicity and the effect of the compounds on cell proliferation. The data clearly show the surprising and unexpected increased anti-cancer activity associated with Compound ID #24 compared to Compound ID #26.
Cell Viability Assay—Cell viability was measured by the CellTiter-Glo® cell viability assay Promega (Madison, Wis.). The CellTiter-Glo® Luminescent Cell Viability Assay is a homogeneous method to determine the number of viable cells in culture based on quantitation of the ATP present, which signals the presence of metabolically active cells. Following treatment, CellTiter-Glo® is added to treatment wells and incubated at 37° C. luminescence values were measured at using a Molecular Devices Spectramax microplate reader.
Single Agent Studies—Cells were grown to 70% confluency, trypsinized, counted, and seeded in 96 well flat-bottom plates at a final concentration of 2.5×10^3-5×10^3 cells/well (Day 0). Cells were allowed to incubate in growth media for 24 hours. […] Viable cell numbers are quantified by the CellTiter-Glo® cell viability assay as described above. […]

[2] = tested on: MM1.S human myeloma cells; assay: Human MM1.S myeloma xenograft, single agent screening; format: in vivo; conditions: female athymic nude mice; 100 mg/kg daily for 19 days, oral gavage
Description: Body weights and tumor measurements were collected twice weekly.

[3] = Pharmacokinetic studies, plasma of healthy mice; format: in vivo; conditions: mouse; for Half-life: 1.0 mg/kg IV; for AUC0-∞: 5.0 mg/kg PO; for AUC: plasma, 5 mg/kg oral (PO)
Method: Plasma samples were collected from healthy mice and analyzed for levels of compound ID #24, ID #25, and ID #26 and reported in Table 6. In brief, compounds were individually and accurately weighed out to produce a stock solution in Dimethyl-sulfoxide (DMSO) at a concentration of 2 mg/mL and stored at −20° C. From the stock solution, a working stock was prepared by diluting it in Methanol-Water 50:50 (v/v) at 20 μg/mL for calibration curve preparation and stored at 4° C. Standards used for quantitation and quality control samples (QC's) were prepared on the same day of sample processing using blank plasma obtained from non-treated mice. For each analyte, standards were prepared through serial dilution of the working stock at concentrations of 0.1, 0.5, 1.0, 10, 50, 100, 500 and 1000 ng/mL; QC's were prepared at intermediate concentrations of 0.75, 7.5, 75 and 750 ng/mL. Plasma samples were stored at −80° C. until ready for analysis and then placed on ice for thawing. An aliquot of 20 μL for samples, standards and QC's, were transferred into a 96-well extraction plate according to a pre-defined layout. Appropriate volume of Methanol-Formic Acid 99.9-0.1 containing internal standard (Verapamil at 25 ng/mL) was added to each well and samples were extracted under vacuum. Eluent was then transferred into a LCMS plate for analysis using a suitable column for separation and MRM detection. Concentration of analytes was calculated based on the calibration curve and analyzed for pharmacokinetic parameters by using Non-compartmental analysis (NCA) using WinNonlin Phoenix software. Parameters such as Cmax, Tmax, half-life, AUC(0-last), AUC(0-∞), volume of distribution (Vss) and clearance (Cl/F) were reported.
The analogs were tested for pharmacokinetic analysis in the mouse with doses of 1 mg/kg for intravenous (IV) route and 5 mg/kg for oral (PO) route. […] Overall exposure following IV dose also favored compound ID #24 with AUC0-∞ 1488.1 hr*ng/mL whereas compound ID #25 and ID #26 were 329.1 and 1193.7 hr*ng/mL, respectively.

[4] = tested on: intratumoral CD8 T-cells and natural killer cells; assay: Intratumoral immune cells in tumor bearing mice; format: in vivo
CT-26 = CT-26 murine colon tumor volume growth; format: in vivo; conditions: 150.00 mg/kg PO QD to end + Isotype Control 0.05 mg/kg IP QDx1, in mm³
Method: • Group 1 Isotype Control+Compound ID #24 Vehicle Control • Group 2 Isotype Control+Compound ID #24 • Group 3 Anti-m4-1BB 0.05 mg/kg • Group 4 Anti-m4-1BB 0.10 mg/kg • Group 5 Anti-m4-1BB 0.05 mg/kg+Compound ID #24

cancer cell models = conditions: cited from earlier work

SMILES: Nc1ncn([C@@H]2O[C@H](CO)[C@@H](O)[C@H]2O)c(=O)n1 [Azacitidine, 4-amino-1-β-D-ribofuranozyl-s-triazin-2(1H)-one]
- Solubility ([1]; acetone, ethanol and methyl ketone): insoluble
- Solubility ([1]; dimethylsulfoxide (DMSO)): soluble
- Solubility ([1]; ethanol/water (50/50), propylene glycol and polyethylene glycol): slightly soluble
- Solubility ([1]; water, water-saturated octanol, 5% dextrose in water, N-methyl-2-pyrrolidone, normal saline and 5% Tween 80 in water): sparingly soluble

SMILES: O=C(NO)c1ccc(Nc2nc3ccccc3n2CC2CCCCC2)cc1 [Compound ID #24, 4-(1-(cyclohexylmethyl)-1H-benzo[d]imidazol-2-ylamino)-N-hydroxybenzamide]
- Tumor volume, Mean (MC-38; Day 1): 94.5
- Tumor volume, Median (MC-38; Day 1): 92.2
- Tumor volume, individual animals (MC-38; Day 1): 68 and 81 and 103 and 128 and 92
- Tumor volume, Mean (MC-38; Day 6): 141.8
- Tumor volume, Median (MC-38; Day 6): 137.6
- Tumor volume, individual animals (MC-38; Day 6): 72 and 92 and 138 and 231 and 176
- Tumor volume, Mean (MC-38; Day 9): 154.8
- Tumor volume, Median (MC-38; Day 9): 148.0
- Tumor volume, individual animals (MC-38; Day 9): 83 and 121 and 148 and 240 and 182
- Tumor volume, Mean (MC-38; Day 12): 187.8
- Tumor volume, Median (MC-38; Day 12): 190.0
- Tumor volume, individual animals (MC-38; Day 12): 123 and 158 and 222 and 248
- Tumor volume, Mean (MC-38; Day 15): 235.9
- Tumor volume, Median (MC-38; Day 15): 251.8
- Tumor volume, individual animals (MC-38; Day 15): 135 and 213 and 290 and 305
- Tumor volume, Mean (MC-38; Day 19): 285.2
- Tumor volume, Median (MC-38; Day 19): 289.3
- Tumor volume, individual animals (MC-38; Day 19): 178 and 289 and 388
- Tumor volume, Mean (MC-38; Day 22): 389.1
- Tumor volume, Median (MC-38; Day 22): 397.8
- Tumor volume, individual animals (MC-38; Day 22): 244 and 398 and 526
- Tumor volume, Mean (MC-38; Day 26): 566.5
- Tumor volume, Median (MC-38; Day 26): 540.0
- Tumor volume, individual animals (MC-38; Day 26): 370 and 540 and 789
- Tumor volume, Mean (MC-38; Day 29): 714.8
- Tumor volume, Median (MC-38; Day 29): 646.1
- Tumor volume, individual animals (MC-38; Day 29): 495 and 646 and 1,003
- Improvement ID#24 over ID#26 Fold Change (U266): 3.50
- anticancer activity (tumor volume) [2]: significantly superior anticancer activity when compared to either Compound ID #25 or Compound ID #26
- Half-life [3]: 3.70 h
- AUC0-∞ [3]: 3974.82 ng·h/mL
- AUC [3]: 3970 ng·h/mL
- numbers of intratumoral CD8 T-cells and natural killer cells [4]: increased numbers of intratumoral CD8 T-cells and natural killer cells
- Tumor volume, Mean (CT-26; Day 1): 122.0
- Tumor volume, Median (CT-26; Day 1): 113.8
- Tumor volume, individual animals (CT-26; Day 1): 106 and 85 and 156 and 149 and 114
- Tumor volume, Mean (CT-26; Day 5): 165.5
- Tumor volume, Median (CT-26; Day 5): 144.8
- Tumor volume, individual animals (CT-26; Day 5): 131 and 73 and 299 and 158
- Tumor volume, Mean (CT-26; Day 8): 215.2
- Tumor volume, Median (CT-26; Day 8): 208.7
- Tumor volume, individual animals (CT-26; Day 8): 176 and 65 and 378 and 242
- Tumor volume, Mean (CT-26; Day 9): 241.8
- Tumor volume, Median (CT-26; Day 9): 245.2
- Tumor volume, individual animals (CT-26; Day 9): 198 and 65 and 412 and 292
- Tumor volume, Mean (CT-26; Day 12): 307.4
- Tumor volume, Median (CT-26; Day 12): 285.7
- Tumor volume, individual animals (CT-26; Day 12): 212 and 68 and 590 and 359
- Tumor volume, Mean (CT-26; Day 14): 382.7
- Tumor volume, Median (CT-26; Day 14): 352.6
- Tumor volume, individual animals (CT-26; Day 14): 254 and 67 and 758 and 452

SMILES: Nc1ncn([C@H]2C[C@H](O)[C@@H](CO)O2)c(=O)n1 [Decitabine, 4-amino-1-(2-deoxy-β-D-erythro-pentofuranosyl)-1,3,5-triazin-2(1H)one]
- Solubility ([1]; dimethylsulfoxide (DMSO)): soluble
- Solubility ([1]; ethanol/water (50/50), methanol/water (50/50) and methanol): slightly soluble
- Solubility ([1]; water): sparingly soluble
- cell cycle, clonogenic survival and growth in cells (cancer cell models; Palii et al. 2008): causes G2 arrest, reduces clonogenic survival, and inhibits growth in cells
- effect on growth and apoptosis of cancer cell models (cancer cell models; through re-expression of silenced genes): suppression of growth and apoptosis

Other lines, results leading:

- Half-life [3]: 1.20 h
- AUC0-∞ [3]: 1277.26 ng·h/mL
- AUC [3]: 1280 ng·h/mL
SMILES: O=C(NO)c1ccc(Nc2nc3ccccc3n2C2CCCCC2)cc1 [Compound ID #25, 4-(1-cyclohexyl-1H-benzo[d]imidazol-2-ylamino)-N-hydroxybenzamide]

- AUC [3]: 1650 ng·h/mL
SMILES: O=C(NO)c1ccc(Nc2nc3ccccc3n2C2CCCCCC2)cc1 [Compound ID #26, 4-(1-cycloheptyl-1H-benzo[d]imidazol-2-ylamino)-N-hydroxybenzamide]
